{"source": "patent US20240197687A1", "about": "“METHODS OF TREATING NEUROINFLAMMATION AND INHIBITING MONOAMINE OXIDASE-A AND RESTORING/UPREGULATING/INCREASING IL-13 AND AND PGC-1 BY ADMINISTERING ORAL DOSAGE FORM CONTAINING MICRONIZED AND NONMICRONIZED PARTICULATE METAXALONE, ALGINIC ACID AND PROPYLENE GLYCOL ALGINATE” (Primus Pharmaceuticals, Inc., priority 2022, published 2024)", "key": {"CCI mice": {"test_system": "CCI mice", "conditions": "cited from earlier work"}, "PINP rats": {"test_system": "PINP rats", "conditions": "cited from earlier work"}, "RIM rats": {"test_system": "RIM rats", "conditions": "melatonin supplementation, gastrocnemius muscle; cited from earlier work"}, "FM fibroblasts": {"test_system": "FM fibroblasts", "conditions": "AMPK activation; cited from earlier work"}, "[1]": {"test_system": "rat model of ischemia-reperfusion injury", "conditions": "cited from earlier work"}, "[2]": {"test_system": "paclitaxel-induced neuropathic pain", "conditions": "via induction of the NRF-2/HO-1 signaling pathway in the spinal cord; cited from earlier work"}, "[3]": {"test_system": "rat periodontal disease model", "conditions": "MAO up-regulation triggered by LPS; cited from earlier work"}, "HMC3 microglial cells": {"test_system": "HMC3 microglial cells", "experiment": "MTT cell viability assay", "conditions": "24, 48 and 72 h, metaxalone 10, 20, 40 μg/mL, staurosporine 100 nM positive control"}}}
{"smiles": "CC1(C)CC[C@]2(NC(=O)C(C)(F)F)CC[C@]3(C)[C@H](C(=O)C=C4[C@@]5(C)C=C(C#N)C(=O)C(C)(C)[C@@H]5CC[C@]43C)[C@@H]2C1", "note": "[RTA-408]", "values": [{"measurement": "mechanical allodynia (von Frey test)", "setting": "CCI mice; CCI mice, dose-dependent", "result": "significantly reversed"}, {"measurement": "thermal hyperalgesia (Hargreaves plantar test)", "setting": "CCI mice; CCI mice, dose-dependent", "result": "significantly reversed"}, {"measurement": "mitochondrial biogenesis (MB)", "setting": "CCI mice; L4-6 spinal cord of CCI mice, NRF-2-dependent", "result": "significantly restored"}, {"measurement": "activity of NRF-2", "setting": "CCI mice; L4-6 spinal cord of CCI mice", "result": "increased"}]}
{"smiles": "Cc1ccc(CN(CC(O)COc2cccc3[nH]ccc23)C(C)(C)C)cc1", "note": "(stereo not drawn) [SR-18292]", "values": [{"measurement": "analgesic effect of formoterol against PINP in presence of PGC-1α inhibitor", "setting": "PINP rats; PINP rats", "result": "partially abolished"}]}
{"smiles": "COc1ccc(CC(C)NCC(O)c2ccc(O)c(NC=O)c2)cc1", "note": "(stereo not drawn) [formoterol]", "values": [{"measurement": "ADRB2 expression, mtDNA copy number and PGC-1α, NRF-1, TFAM protein expression", "setting": "PINP rats; spinal cord of PINP rats", "result": "restored"}]}
{"smiles": "COc1ccc2[nH]cc(CCNC(C)=O)c2c1", "note": "[melatonin]", "values": [{"measurement": "studied parameters (PGC-1α, Mfn2, CoQ10), oxidative stress", "setting": "RIM rats", "result": "significantly preserved all the studied parameters"}]}
{"smiles": "CN(C)C(=N)N=C(N)N", "note": "[metformin]", "values": [{"measurement": "response to moderate oxidative stress and mitochondrial metabolism", "setting": "FM fibroblasts", "result": "improved"}]}
{"smiles": "O=C(NCCN1CCOCC1)c1ccc(Cl)cc1", "note": "[moclobemide]", "values": [{"measurement": "inflammatory process", "setting": "[1]", "result": "attenuate"}]}
{"smiles": "Cc1c(-c2cnccn2)ssc1=S", "note": "[oltipraz]", "values": [{"measurement": "paclitaxel-induced neuropathic pain", "setting": "[2]", "result": "significantly attenuate"}]}
{"smiles": "NNCCc1ccccc1", "note": "[phenelzine]", "values": [{"measurement": "oxidative stress", "setting": "[3]", "result": "significantly reduce"}]}
{"smiles": "CN[C@@H]1C[C@H]2O[C@@](C)([C@@H]1OC)n1c3ccccc3c3c4c(c5c6ccccc6n2c5c31)C(=O)NC4", "note": "[staurosporine]", "values": [{"measurement": "cell viability (MTT)", "setting": "HMC3 microglial cells", "result": "significant reduction in cell viability"}]}
